# Results as given in patent US4081441A, “Antibacterial agents” (priority 1977, dated 1978).
# Where two headings read alike, the source gives them in different places.
# What was measured:
# Cl. perfringens = test: microbe, parasite or virus in culture; format: cell-based; conditions: Clostridium perfringens
# Cl. acidiurici = test: M.I.C. against anaerobic bacteria, Cl. acidiurici; format: cell-based; conditions: strain A9560
# Pseudomonas aeruginosa = test: animal or person; conditions: in Mus musculus, im
# [1] = Mouse blood (serum) antibiotic levels after single intramuscular dose; format: in vivo; conditions: im, mice, 40 mg./kg. i.m., read-out: Blood Level
# Procedure: Serum antibiotic levels from mice administered a single intramuscular dose of 40 mg./kg. of BL-[…] or carbenicillin are shown below.
# Cl. difficile = test: M.I.C. against anaerobic bacteria, Cl. difficile; format: cell-based; conditions: Clostridioides difficile
# Cl. ramosum = test: M.I.C. against anaerobic bacteria, Cl. ramosum; format: cell-based; conditions: Thomasclavelia ramosa
# Bacteroides fragilis = test: M.I.C. against anaerobic bacteria, Bacteroides fragilis; format: cell-based
# Cl. cylindrosporum = test: M.I.C. against anaerobic bacteria, Cl. cylindrosporum; format: cell-based; conditions: strain A9562
# Cl. septicum = test: M.I.C. against anaerobic bacteria, Cl. septicum; format: cell-based; conditions: Clostridium septicum; strain A21869
structure (smiles),measurement,setting,value
"CC1(C)S[C@@H]2[C@H](NC(=O)[C@H](NC(=O)c3n[nH]c(=S)[nH]c3=O)c3ccc(O)cc3)C(=O)N2[C@H]1C(=O)O [BL-P1937, sodium D(-)-6-(α-(1,2,4-triazine-3-thione-5-one-6-carboxamido)-4-hydroxyphenylacetamido)-penicillanate]",MIC,Cl. perfringens; strain A21873,0.063 µg/mL
same,MIC,Cl. perfringens; strain A21874,0.13 µg/mL
same,MIC,Cl. perfringens; strain A21907,0.25 µg/mL
same,MIC,Cl. acidiurici,1 µg/mL
same,ED50,"Pseudomonas aeruginosa; read-out: PD50 /treatment, P. aeruginosa A9843A, challenge 1 × 10^4, i.m., at 0 and 2 hours",11 mg/kg
same,ED50,"Pseudomonas aeruginosa; read-out: PD50 /treatment, P. aeruginosa A9843A, challenge 2 × 10^4, i.m., at 0 and 2 hours",5.4 mg/kg
same,ED50,"Pseudomonas aeruginosa; read-out: PD50 /treatment, P. aeruginosa A9843A, challenge 3 × 10^4, i.m., at 0 and 2 hours",11 mg/kg
same,ED50,"Pseudomonas aeruginosa; read-out: PD50 /treatment, P. aeruginosa A20599, challenge 3 × 10^4, i.m., at 0 and 2 hours",~13 mg/kg
same,ED50,"Pseudomonas aeruginosa; read-out: PD50 /treatment, P. aeruginosa A20599, challenge 6 × 10^4, i.m., at 0 and 2 hours",22 mg/kg
same,concentration at 0.25 h,[1]; 15 min.,19900 ng/mL
same,concentration at 0.5 h,[1]; 30 min.,10300 ng/mL
same,concentration at 1 h,[1]; 60 min.,< 2200 ng/mL
same,concentration at 1.5 h,[1]; 90 min.,< 2200 ng/mL
same,MIC,Cl. difficile; strain A21675,4 µg/mL
same,MIC,Cl. difficile; strain A21972,4 µg/mL
same,MIC,Cl. ramosum; strain A21883,0.25 µg/mL
same,MIC,Cl. ramosum; strain A21970,2 µg/mL
same,MIC,Bacteroides fragilis; strain A20920,0.5 µg/mL
same,MIC,Bacteroides fragilis; strain A20926,2 µg/mL
same,MIC,Bacteroides fragilis; strain A20927-1,1 µg/mL
same,MIC,Bacteroides fragilis; strain A20930,16 µg/mL
same,MIC,Bacteroides fragilis; strain A20933,4 µg/mL
same,MIC,Bacteroides fragilis; strain A20934,4 µg/mL
same,MIC,Bacteroides fragilis; strain A20935,2 µg/mL
same,MIC,Bacteroides fragilis; strain A21870,1 µg/mL
same,MIC,Bacteroides fragilis; strain A21871,2 µg/mL
same,MIC,Bacteroides fragilis; strain A21872,16 µg/mL
same,MIC,Bacteroides fragilis; strain A21875,8 µg/mL
same,MIC,Bacteroides fragilis; strain A22053,2 µg/mL
same,MIC,Bacteroides fragilis; strain A27020,8 µg/mL
same,MIC,Cl. cylindrosporum,0.25 µg/mL
same,MIC,Cl. septicum,1 µg/mL
